Measured values published in publication PMC9138090, “Study on the Neuroprotective, Radical-Scavenging and MAO-B Inhibiting Properties of New Benzimidazole Arylhydrazones as Potential Multi-Target Drugs for the Treatment of Parkinson’s Disease” (Antioxidants, 2022).

Columns and labels:
[1] = MTT cytotoxicity on SH-SY5Y cells; type: cell-based, human; details: human, SH-SY5Y neuroblastoma cells, MTT test, 24 h incubation; read-out: IC50, in vitro cytotoxicity on SH-SY5Y cells
Experimental: (§1) Human neuroblastoma cell line SH-SY5Y was obtained from the European Collection of Cell Cultures (ECACC, Salisbury, UK). The cells were maintained in 75 cm^2 flasks at 37 °C in a humidified atmosphere with 5% CO2 and cultured in RPMI 1640 medium, supplemented with 10% fetal bovine serum and 2 mM L-glutamine.
(§2) MTT (Sigma-Aldrich Chemie GmbH, Schnelldorf, Germany) assay is based on interaction between tetrazolium dye 3-(4,5-dimethylthiazol-2-yl)-2,5-diphenyltetrazolium bromide and succinic dehydrogenase in the living cells’ mitochondria. In this reaction, the formed purple formazan crystals indicate the presence of viable cells. SH-SY5Y cells were seeded in 96-well microplates at a density 2.5 × 10^4 cells/well and allowed to attach to the well surface at 37 °C in a humidified atmosphere with 5% CO2 (24 h). Different concentrations of compounds ([…]) were added to cells and incubated for 24 h. For each concentration, a set of at least 8 wells were used. After the treatment, the solution in each well was substituted with MTT (3-(4,5-dimethylthiazol-2-yl)-2,5-diphenyltetrazolium bromide) solution (0.5 mg/mL in culture medium). The microplates were further incubated for 3 h at 37 °C and the obtained formazan crystals were dissolved by 100 µL/well of DMSO. The absorbance was measured in a multiplate reader Synergy 2 (BioTek Instruments, Inc, Highland Park, Winooski, VT, USA) at 570 nm (690 nm for background absorbance).
(§3) An important step in the development of new pharmacologically active compounds is the establishment of their safety profile. An in vitro toxicity evaluation was carried out on the neuroblastoma cell line SH-SY5Y, which is a well-established model in neuroscience. The neuroblastoma SH-SY5Y are human derived cells with relatively homogeneous neuroblast-like structure. The cells express a dopamine-β-hydroxylase and tyrosine hydroxylase enzyme activity, specific types of human proteins and protein isoforms. The possible neurotoxic effects of the potential drug candidates were measured by cell viability assay (MTT-test). The IC50 values were used as a robust parameter for comparison. The test compounds were dissolved in DMSO and serially diluted in cell culture medium to achieve final concentrations ranging from 1 to 500 µM; the culture medium containing DMSO in the corresponding concentration was used as untreated controls. A concentration dependent effect on cell viability was observed after 24 h incubation.

[2] = Fe(II)-induced oxidative damage of lecithin (TBA-RS); details: 90 µmol/L; for sample/control absorbance ratio (% of the control), lecithin peroxidation: lecithin 1 mg/mL, FeCl2 0.1 mmol/L
Experimental: The classical method of determining the TBA-reactive substances at 532 nm as described by Asakawa and Matsushita has been used. Two groups of measurement compositions named controls and samples were prepared in phosphate buffer (K2HPO4/KH2PO4, pH 7.4) for each of the used substrates. Both of them contained equivalent concentrations of lecithin (1 mg/mL) or 2-deoxyribose (0.5 mmol/L) and FeCl2 (0.1 mmol/L). In the controls, the tested hydrazones have been omitted and in the samples the effect of the newly designed compounds at the concentrations indicated below the figures has been determined. The obtained samples were incubated at 37 °C for 30 min. The reaction was stopped, and after adding 0.5 mL 2.8% trichloroacetic acid and 0.5 mL of thiobarbituric acid, the samples were heated in boiling water for 20 min. The lecithin containing samples were centrifuged at 3000 rpm for 20 min and the supernatant was aspired out. The results have been presented as a percentage of the control sample, treated only with ferrous iron where we expected maximum oxidative damage under the described conditions.

[3] = target: T1, human recombinant MAO-B (hMAO-B) enzyme (Homo sapiens, UniProt P27338); test: hMAO-B activity, Amplex UltraRed fluorometric method; type: biochemical; details: 1 µM
T1 construct: purchased Invitrogen, USA
T1 sequence (P27338 1-520): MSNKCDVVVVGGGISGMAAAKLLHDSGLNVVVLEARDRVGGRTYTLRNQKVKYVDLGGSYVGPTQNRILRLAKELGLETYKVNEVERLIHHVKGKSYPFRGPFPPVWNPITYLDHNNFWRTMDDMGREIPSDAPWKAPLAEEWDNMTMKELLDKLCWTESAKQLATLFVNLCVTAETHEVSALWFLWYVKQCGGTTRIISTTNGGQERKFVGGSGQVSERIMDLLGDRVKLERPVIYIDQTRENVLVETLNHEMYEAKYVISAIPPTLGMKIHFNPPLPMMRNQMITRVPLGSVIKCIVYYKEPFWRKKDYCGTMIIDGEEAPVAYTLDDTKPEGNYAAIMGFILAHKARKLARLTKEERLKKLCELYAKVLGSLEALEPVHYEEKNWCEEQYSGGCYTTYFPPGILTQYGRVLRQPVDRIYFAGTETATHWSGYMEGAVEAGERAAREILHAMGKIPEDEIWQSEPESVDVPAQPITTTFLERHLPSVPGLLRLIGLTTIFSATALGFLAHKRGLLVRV
Experimental: The effects of the test compounds on human recombinant MAO-B (hMAO-B) enzyme were studied by the Amplex UltraRed reagent (Sigma-Aldrich Chemie GmbH) fluorometric method with small modifications. The working solutions of the compounds, reagents, hMAO-B, and reaction buffers were prepared according to the producer’s instructions. The tyramine hydrochloride was used as a substrate. The reaction mixture contained a stock solution of Amplex Red (10 mM in dimethyl sulfoxide), the reaction buffer (0.05 M sodium phosphate) at pH 7.4, and the storage solution of horseradish peroxidase (10 U/mL). There were pure MAO-B working solutions in the reaction buffer and MAO-B working solution containing hydrogen peroxide as controls. The final concentration of the test compounds in the well was 1 μM. The compounds together with hMAO-B were embedded in a 96-well plate (8 wells for each compound), and then the plate was incubated for 30 min (dark, at 37 °C). Thereafter, the reaction was initiated by 50 μL Mix Solution: Amplex®Red reagent, horseradish peroxidase, and tyramine as an enzyme substrate in the reaction buffer. The fluorescence was measured every 30 min at 0, 30, 60, 90, 120, and 150 min), in dark, while shaking the reaction mixture at constant temperature of 37 °C. The fluorimetric measurements were assessed using a Synergy 2 Microplate Reader.
Monoamine oxidase B catalyzes dopamine metabolism and oxidation leading to the formation of reactive oxygen species and reactive quinones, which provoke dopamine neurotoxicity and neurodegeneration. In the next experiments, the compounds showing the best safety profile and the most promising neuroprotective activity (3d, 3e, 3h, 3i, 3m, 3n, 3p) were evaluated for their potential inhibitory activity on hMAOB. Selegiline and rasagiline as potent MAO-B inhibitors were used as standard compounds for comparison.

SH-SY5Y cells = test: MTT cytotoxicity on SH-SY5Y cells; type: cell-based, human; details: MTT test, 24 h incubation; read-out: IC50, in vitro cytotoxicity on SH-SY5Y cells
Experimental: as §1, §2, §3

SMILES	melting point [°C]	IC50 at 24 h [1] [µM]	sample/control absorbance ratio (% of the control), lecithin peroxidation [2]	lecithin peroxidation effect compared with 3a (in words) [2]	inhibitory effect on hMAOB activity (in words) [3]	IC50 (SH-SY5Y cells) [µM]
COc1ccc(C=NNC(=O)CCn2c(=S)n(CCC(=O)NN=Cc3ccc(OC)c(OC)c3)c3ccccc32)cc1OC [3c, 3,3′-(2-Thioxo-1H-benzo[d]imidazole-1,3(2H)-diyl)bis(N′-(3,4 dimethoxybenzylidene)propanehydrazide)]	239 to 241	112	–	statistically identical effect to 3a	–	–
COc1cccc(O)c1C=NNC(=O)CCn1c(=S)n(CCC(=O)NN=Cc2c(O)cccc2OC)c2ccccc21 [3n, 3,3′-(2-Thioxo-1H-benzo[d]imidazole-1,3(2H)-diyl)bis(N′-(2-hydroxy-6-methoxybenzylidene)propanehydrazide)]	272 to 274	> 250	–	–	statistically significant MAO-B inhibitory effects	269
Cc1c(C)c2c(c(C)c1O)CCC(C)(C(=O)O)O2 (centres unmarked) [Trolox, reference compound]	–	–	around 25%	–	–	–
COc1cccc(C=NNC(=O)CCn2c(=S)n(CCC(=O)NN=Cc3cccc(OC)c3O)c3ccccc32)c1O [3l, 3,3′-(2-Thioxo-1H-benzo[d]imidazole-1,3(2H)-diyl)bis(N′-(2-hydroxy-3-methoxybenzylidene)propanehydrazide)]	268 to 270	> 200	–	–	–	200
O=C(CCn1c(=S)n(CCC(=O)N/N=C/c2ccccc2)c2ccccc21)N/N=C/c1ccccc1 [3a]	246 to 248	103	66.52%	–	–	–
COc1cc(C=NNC(=O)CCn2c(=S)n(CCC(=O)NN=Cc3cc(OC)c(O)c(OC)c3)c3ccccc32)cc(OC)c1O [3d, 3,3′-(2-Thioxo-1H-benzo[d]imidazole-1,3(2H)-diyl)bis(N′-(4-hydroxy-3,5-dimethoxybenzylidene)propanehydrazide)]	284 to 286	> 250	around 40%	–	statistically significant MAO-B inhibitory effects	268
COc1cc(O)ccc1C=NNC(=O)CCn1c(=S)n(CCC(=O)NN=Cc2ccc(O)cc2OC)c2ccccc21 [3p, 3,3′-(2-Thioxo-1H-benzo[d]imidazole-1,3(2H)-diyl)bis(N′-(4-hydroxy-2-methoxybenzylidene)propanehydrazide)]	205 to 207	> 250	–	–	statistically significant MAO-B inhibitory effects	254
O=C(CCn1c(=S)n(CCC(=O)NN=Cc2ccc(O)c(O)c2O)c2ccccc21)NN=Cc1ccc(O)c(O)c1O [3k, 3,3′-(2-Thioxo-1H-benzo[d]imidazole-1,3(2H)-diyl)bis(N′-(2,3,4-trihydroxybenzylidene)propanehydrazide)]	279 to 280	65.3	–	statistically identical effect to 3a	–	–
COc1cc(/C=N/NC(=O)CCn2c(=S)n(CCC(=O)N/N=C/c3cc(O)c(O)c(OC)c3)c3ccccc32)cc(O)c1O [3q, 3,3′-(2-Thioxo-1H-benzo[d]imidazole-1,3(2H)-diyl)bis(N′-(3,4-hydroxy-5-methoxybenzylidene)propanehydrazide)]	174 to 176	77.7	around 40%	–	–	–
O=c1c(O)c(-c2ccc(O)c(O)c2)oc2cc(O)cc(O)c12 [Quercetin, reference compound]	–	–	around 25%	–	–	–

Further lines, with some results ahead:

melting point [°C]	SMILES	IC50 at 24 h [1] [µM]	sample/control absorbance ratio (% of the control), lecithin peroxidation [2]	lecithin peroxidation effect compared with 3a (in words) [2]	inhibitory effect on hMAOB activity (in words) [3]	IC50 (SH-SY5Y cells) [µM]
212 to 214	O=C(CCn1c(=S)n(CCC(=O)NN=Cc2ccc(O)c(O)c2)c2ccccc21)NN=Cc1ccc(O)c(O)c1 [3j, 3,3′-(2-Thioxo-1H-benzo[d]imidazole-1,3(2H)-diyl)bis(N′-(3,4-dihydroxybenzylidene)propanehydrazide)]	187	around 40%	–	–	–
281 to 283	O=C(CCn1c(=S)n(CCC(=O)NN=Cc2ccc(O)cc2)c2ccccc21)NN=Cc1ccc(O)cc1 [3g, 3,3′-(2-Thioxo-1H-benzo[d]imidazole-1,3(2H)-diyl)bis(N′-(4-hydroxybenzylidene)propanehydrazide)]	77.8	–	–	–	–
229 to 231	COc1cc(C=NNC(=O)CCn2c(=S)n(CCC(=O)NN=Cc3ccc(O)c(OC)c3)c3ccccc32)ccc1O [3b, 3,3′-(2-Thioxo-1H-benzo[d]imidazole-1,3(2H)-diyl)bis(N′-(4-hydroxy-3-methoxybenzylidene)propanehydrazide)]	101	–	–	–	–
223 to 224	O=C(CCn1c(=S)n(CCC(=O)NN=Cc2cccc(O)c2)c2ccccc21)NN=Cc1cccc(O)c1 [3f, 3,3′-(2-Thioxo-1H-benzo[d]imidazole-1,3(2H)-diyl)bis(N′-(3-hydroxybenzylidene)propanehydrazide)]	77.7	–	–	–	–
255 to 257	COc1ccc(C=NNC(=O)CCn2c(=S)n(CCC(=O)NN=Cc3ccc(OC)c(O)c3)c3ccccc32)cc1O [3o, 3,3′-(2-Thioxo-1H-benzo[d]imidazole-1,3(2H)-diyl)bis(N′-(3-hydroxy-4-methoxybenzylidene)propanehydrazide)]	73.6	–	–	–	–
